# Results taken from PubChem BioAssay (NCI).
#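 Results reflect a 48-hour exposure of cells in 96-well plates to compound at five concentrations. Abbreviation: GI50, concentration required for 50% inhibition of growth. TGI marks complete inhibition of growth.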
# How the values were obtained:
# Assay in all cases: NCI tumour cell line growth inhibition, 48 h
# UACC-62 melanoma = system: UACC-62 melanoma
# HT29 colon = system: HT29 colon
# MCF7 breast = system: MCF7 breast
# SK-MEL-2 melanoma = system: SK-MEL-2 melanoma
# SF-268 CNS = system: SF-268 CNS
# SN12C renal = system: SN12C renal
# SR leukemia = system: SR leukemia
# DU-145 prostate = system: DU-145 prostate
# OVCAR-8 ovarian = system: OVCAR-8 ovarian
# HS 578T breast = system: HS 578T breast
# CCRF-CEM leukemia = system: CCRF-CEM leukemia
# OVCAR-3 ovarian = system: OVCAR-3 ovarian
# A498 renal = system: A498 renal
# UO-31 renal = system: UO-31 renal
# LOX IMVI melanoma = system: LOX IMVI melanoma
# SF-539 CNS = system: SF-539 CNS
# HCC-2998 colon = system: HCC-2998 colon
# SNB-75 CNS = system: SNB-75 CNS
# T-47D breast = system: T-47D breast
# OVCAR-4 ovarian = system: OVCAR-4 ovarian
# TK-10 renal = system: TK-10 renal
# MOLT-4 leukemia = system: MOLT-4 leukemia
# EKVX NSCLC = system: EKVX NSCLC
# SK-OV-3 ovarian = system: SK-OV-3 ovarian
# U251 CNS = system: U251 CNS
# COLO 205 colon = system: COLO 205 colon
# SF-295 CNS = system: SF-295 CNS
# KM12 colon = system: KM12 colon
# UACC-257 melanoma = system: UACC-257 melanoma
# HOP-92 NSCLC = system: HOP-92 NSCLC
# M14 melanoma = system: M14 melanoma
# HOP-62 NSCLC = system: HOP-62 NSCLC
# RXF 393 renal = system: RXF 393 renal
# MDA-MB-435 = system: MDA-MB-435
# SK-MEL-5 melanoma = system: SK-MEL-5 melanoma
# SK-MEL-28 melanoma = system: SK-MEL-28 melanoma
# CAKI-1 renal = system: CAKI-1 renal
# PC-3 prostate = system: PC-3 prostate
# HCT-15 colon = system: HCT-15 colon
# IGROV1 ovarian = system: IGROV1 ovarian
# NCI-H226 lung = system: NCI-H226 lung
# 786-0 renal = system: 786-0 renal
# HL-60(TB) leukemia = system: HL-60(TB) leukemia
# A549 NSCLC = system: A549 NSCLC
# ACHN renal = system: ACHN renal
# MALME-3M melanoma = system: MALME-3M melanoma
# NCI/ADR-RES ovarian = system: NCI/ADR-RES ovarian
# NCI-H522 lung = system: NCI-H522 lung
# HCT-116 colon = system: HCT-116 colon
# OVCAR-5 ovarian = system: OVCAR-5 ovarian
# MDA-MB-231 breast = system: MDA-MB-231 breast
# SW-620 colon = system: SW-620 colon
# SNB-19 CNS = system: SNB-19 CNS
# NCI-H460 lung = system: NCI-H460 lung
# RPMI-8226 leukemia = system: RPMI-8226 leukemia
# BT-549 breast = system: BT-549 breast
# K-562 leukemia = system: K-562 leukemia
compound,measurement,setting,value
C=CC(=O)N1CCN([C@@H](CC2CC2)c2ccc([C@H](C)Nc3ncc4c(n3)N(CC)C(=O)OC4)cc2)CC1,GI50,UACC-62 melanoma,12.1 µM
same,TGI,UACC-62 melanoma,26.1 µM
same,GI50,HT29 colon,17.5 µM
same,TGI,HT29 colon,50.7 µM
same,GI50,MCF7 breast,6.66 µM
same,TGI,MCF7 breast,24.6 µM
same,GI50,SK-MEL-2 melanoma,12.6 µM
same,TGI,SK-MEL-2 melanoma,27.4 µM
same,GI50,SF-268 CNS,11.7 µM
same,TGI,SF-268 CNS,28.5 µM
same,GI50,SN12C renal,13.7 µM
same,TGI,SN12C renal,31.8 µM
same,GI50,SR leukemia,4.05 µM
same,TGI,SR leukemia,22.7 µM
same,GI50,DU-145 prostate,12.7 µM
same,TGI,DU-145 prostate,25.4 µM
same,GI50,OVCAR-8 ovarian,11.1 µM
same,TGI,OVCAR-8 ovarian,26.7 µM
same,GI50,HS 578T breast,9.19 µM
same,TGI,HS 578T breast,55.6 µM
same,GI50,CCRF-CEM leukemia,4.29 µM
same,TGI,CCRF-CEM leukemia,25.2 µM
same,GI50,OVCAR-3 ovarian,12 µM
same,TGI,OVCAR-3 ovarian,26.5 µM
same,GI50,A498 renal,11.2 µM
same,TGI,A498 renal,23.6 µM
same,GI50,UO-31 renal,10.8 µM
same,TGI,UO-31 renal,26.3 µM
same,GI50,LOX IMVI melanoma,11.1 µM
same,TGI,LOX IMVI melanoma,26.6 µM
same,GI50,SF-539 CNS,11.7 µM
same,TGI,SF-539 CNS,24.3 µM
same,GI50,HCC-2998 colon,13 µM
same,TGI,HCC-2998 colon,28 µM
same,GI50,SNB-75 CNS,2.06 µM
same,TGI,SNB-75 CNS,16.7 µM
same,GI50,T-47D breast,14.8 µM
same,TGI,T-47D breast,61.3 µM
same,GI50,OVCAR-4 ovarian,12.3 µM
same,TGI,OVCAR-4 ovarian,28.4 µM
same,GI50,TK-10 renal,9.02 µM
same,TGI,TK-10 renal,23.1 µM
same,GI50,MOLT-4 leukemia,4.51 µM
same,TGI,MOLT-4 leukemia,26.4 µM
same,GI50,EKVX NSCLC,14.1 µM
same,TGI,EKVX NSCLC,27.6 µM
same,GI50,SK-OV-3 ovarian,14.5 µM
same,TGI,SK-OV-3 ovarian,30.2 µM
same,GI50,U251 CNS,11.8 µM
same,TGI,U251 CNS,26.3 µM
same,GI50,COLO 205 colon,16.9 µM
same,TGI,COLO 205 colon,36 µM
same,GI50,SF-295 CNS,13 µM
same,TGI,SF-295 CNS,26.3 µM
same,GI50,KM12 colon,15.1 µM
same,TGI,KM12 colon,34.6 µM
same,GI50,UACC-257 melanoma,10.9 µM
same,TGI,UACC-257 melanoma,25.5 µM
same,GI50,HOP-92 NSCLC,1.47 µM
same,TGI,HOP-92 NSCLC,8.06 µM
same,GI50,M14 melanoma,15.5 µM
same,TGI,M14 melanoma,30.1 µM
same,GI50,HOP-62 NSCLC,12.4 µM
same,TGI,HOP-62 NSCLC,32.9 µM
same,GI50,RXF 393 renal,4.62 µM
same,TGI,RXF 393 renal,20.9 µM
same,GI50,MDA-MB-435,11.1 µM
same,TGI,MDA-MB-435,23.6 µM
same,GI50,SK-MEL-5 melanoma,15.4 µM
same,TGI,SK-MEL-5 melanoma,30 µM
same,GI50,SK-MEL-28 melanoma,16.6 µM
same,TGI,SK-MEL-28 melanoma,30.5 µM
same,GI50,CAKI-1 renal,5.23 µM
same,TGI,CAKI-1 renal,19 µM
same,GI50,PC-3 prostate,12 µM
same,TGI,PC-3 prostate,31.4 µM
same,GI50,HCT-15 colon,10.3 µM
same,TGI,HCT-15 colon,25.5 µM
same,GI50,IGROV1 ovarian,4.58 µM
same,TGI,IGROV1 ovarian,17.5 µM
same,GI50,NCI-H226 lung,14.1 µM
same,TGI,NCI-H226 lung,34.7 µM
same,GI50,786-0 renal,11.2 µM
same,TGI,786-0 renal,25.7 µM
same,GI50,HL-60(TB) leukemia,2.28 µM
same,TGI,HL-60(TB) leukemia,12.7 µM
same,GI50,A549 NSCLC,11.4 µM
same,TGI,A549 NSCLC,28.7 µM
same,GI50,ACHN renal,14.5 µM
same,TGI,ACHN renal,27.9 µM
same,GI50,MALME-3M melanoma,15.9 µM
same,TGI,MALME-3M melanoma,30.8 µM
same,GI50,NCI/ADR-RES ovarian,21.5 µM
same,TGI,NCI/ADR-RES ovarian,> 100 µM
same,GI50,NCI-H522 lung,10.2 µM
same,TGI,NCI-H522 lung,26.1 µM
same,GI50,HCT-116 colon,7.67 µM
same,TGI,HCT-116 colon,21.9 µM
same,GI50,OVCAR-5 ovarian,16.6 µM
same,TGI,OVCAR-5 ovarian,35.4 µM
same,GI50,MDA-MB-231 breast,12 µM
same,TGI,MDA-MB-231 breast,27.4 µM
same,GI50,SW-620 colon,14.2 µM
same,TGI,SW-620 colon,31.1 µM
same,GI50,SNB-19 CNS,14.4 µM
same,TGI,SNB-19 CNS,27.8 µM
same,GI50,NCI-H460 lung,14.2 µM
same,TGI,NCI-H460 lung,29.7 µM
same,GI50,RPMI-8226 leukemia,4.95 µM
same,TGI,RPMI-8226 leukemia,24.9 µM
same,GI50,BT-549 breast,4.7 µM
same,TGI,BT-549 breast,16.6 µM
same,GI50,K-562 leukemia,5.34 µM
same,TGI,K-562 leukemia,69.5 µM
